Measured values from ChEMBL document CHEMBL4229403, “Protein Arginine Methyltransferase 5 (PRMT5) as an Anticancer Target and Its Inhibitor Discovery” (J Med Chem, 2018).
One block for each molecule: values may come before it.

What was measured:
[1] = target: PRMT5/MEP50 complex (Homo sapiens) (UniProt O14744+Q9BQA1); assay: (§1) Inhibition of human N-terminal FLAG-tagged PRMT5 (2 to end)/human N-terminal His-tagged MEP50 (2 to end) expressed in HEK293 cells at 50 uM using biotinylated H4 derived peptide as substrate preincubated for 15 mins followed by substrate addition measured after 60 mins ibn presence of [3H]SAM by liquid scintillation counting
[2] = target: T1, Protein arginine N-methyltransferase 5 (Homo sapiens, UniProt O14744); assay: Inhibition of human PRMT5 expressed in insect cells co-expressing His-tagged MEP50 using Ser-Gly-Arg-Gly- Lys-Gly-Gly-Lys-Gly-Leu-Gly-Lys-Gly-Gly-Ala-Lys-Arg-His-Arg-Lys-Val-NH2 peptide as substrate after 4 hrs in presence of SAM by Transcreene EPIGEN methyltransferase assays
T1 sequence (O14744 whole entry): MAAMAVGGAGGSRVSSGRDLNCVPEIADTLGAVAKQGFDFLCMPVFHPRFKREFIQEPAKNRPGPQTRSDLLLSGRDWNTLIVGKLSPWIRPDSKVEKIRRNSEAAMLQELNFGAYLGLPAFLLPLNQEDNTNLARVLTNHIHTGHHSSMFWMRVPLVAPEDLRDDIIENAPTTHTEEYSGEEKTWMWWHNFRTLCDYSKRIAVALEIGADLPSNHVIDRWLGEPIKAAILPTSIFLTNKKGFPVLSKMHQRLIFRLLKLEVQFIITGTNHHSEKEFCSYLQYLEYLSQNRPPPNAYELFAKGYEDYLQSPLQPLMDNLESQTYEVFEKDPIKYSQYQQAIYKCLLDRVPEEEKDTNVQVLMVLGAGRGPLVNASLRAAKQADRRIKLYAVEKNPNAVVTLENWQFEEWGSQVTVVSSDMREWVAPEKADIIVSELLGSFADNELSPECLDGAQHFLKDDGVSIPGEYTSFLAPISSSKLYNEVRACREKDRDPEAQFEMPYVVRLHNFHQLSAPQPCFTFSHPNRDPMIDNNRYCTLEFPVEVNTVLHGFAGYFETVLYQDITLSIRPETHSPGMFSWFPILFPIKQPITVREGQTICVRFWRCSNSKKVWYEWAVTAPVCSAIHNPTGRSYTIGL

PRMT5/MEP50 complex = PRMT5/MEP50 complex (Homo sapiens, UniProt O14744); assay: as §1, with “cells” for “cells at 50 uM”, “in” for “ibn”; type: cell-based
Sequence of PRMT5/MEP50 complex (O14744 whole entry): as above
Sequence of PRMT5/MEP50 complex (Q9BQA1 whole entry, further chain): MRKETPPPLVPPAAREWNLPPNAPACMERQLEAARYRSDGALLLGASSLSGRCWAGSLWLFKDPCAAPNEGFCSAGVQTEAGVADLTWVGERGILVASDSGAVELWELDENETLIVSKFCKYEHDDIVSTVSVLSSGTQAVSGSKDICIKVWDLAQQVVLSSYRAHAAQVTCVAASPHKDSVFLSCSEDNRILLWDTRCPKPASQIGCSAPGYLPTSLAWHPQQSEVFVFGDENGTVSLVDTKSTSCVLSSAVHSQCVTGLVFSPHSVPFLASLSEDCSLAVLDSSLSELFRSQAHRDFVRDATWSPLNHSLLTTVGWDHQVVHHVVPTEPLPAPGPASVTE

[3] = target: T1, Protein arginine N-methyltransferase 5; assay: Inhibition of PRMT5 (unknown origin) using H4R3 as substrate by HTRF assay
[4] = target: T1, Protein arginine N-methyltransferase 5; assay: Inhibition of PRMT5 (unknown origin) at 50 uM by radioactive methylation assay
[5] = Oral bioavailability in mouse at 10 mg/kg; type: ADME, organism-based; settings: in vivo
Maver1 [6] = assay: Antitumor activity against human Maver1 cells xenografted in SCID mouse assessed as tumor growth inhibition at 200 mg/kg, po BID administered for 21 days; type: functional; settings: 504 h, read-out: TGI
[7] = Plasma clearance in mouse at 2 mg/kg, iv; type: ADME, organism-based
[8] = Volume of distribution in mouse at 2 mg/kg, iv; type: ADME, organism-based; settings: in vivo
Z-138 [9] = assay: Antitumor activity against human Z138 cells xenografted in SCID mouse assessed as tumor growth inhibition at 200 mg/kg, po BID administered for 21 days; type: functional; settings: Z-138, po, 504 h, read-out: TGI
[10] = Antiproliferative activity against human Th1 cells by trypan blue exclusion assay; type: functional, cell-based
[11] = Antiproliferative activity against human TH2 cells by trypan blue exclusion assay; type: functional, cell-based
JeKo-1 = assay: Antiproliferative activity against human JeKo1 cells after 3 days by cell titer-glo luminescent cell viability assays; type: functional, cell-based; settings: JeKo-1, 72 h
Z-138 [12] = assay: Antiproliferative activity against human Z138 cells after 3 days by cell titer-glo luminescent cell viability assays; type: functional, cell-based; settings: Z-138, 72 h
Maver1 [13] = assay: Antiproliferative activity against human Maver1 cells after 3 days by cell titer-glo luminescent cell viability assays; type: functional, cell-based; settings: Maver1, 72 h
[14] = Plasma concentration in po dosed Sprague-Dawley rat administered as single dose; type: ADME, organism-based; settings: in vivo
[15] = target: T1, Protein arginine N-methyltransferase 5; assay: Inhibition of human 6xHis-tagged PRMT5 expressed in bacterial expression system using histone H2A as substrate after 2 hrs in presence of by S-[methyl-3H]adenosylmethionine by liquid scintillation counting
[16] = Plasma concentration in iv dosed Sprague-Dawley rat administered as single dose; type: ADME, organism-based; settings: in vivo

SMILES: OCCNCc1c(OCc2ccc(Cl)cc2)ccc2ccccc12
inhibition [1]: 69%
IC50 (PRMT5/MEP50 complex): 35.6 µM

SMILES: CCn1c2ccc(Br)cc2c2cc(CNCc3ccccc3OC)ccc21
IC50 [10]: 1.1 µM
IC50 [11]: 4 µM

SMILES: OC(CNCc1c(OCc2ccccc2)ccc2ccccc12)c1ccccc1 (stereo not given)
EC50 (JeKo-1): 10.5 µM
EC50 (Z-138 [12]): 12.7 µM
EC50 (Maver1 [13]): 12.7 µM

SMILES: CCn1c2ccccc2c2cc(CNC3CCCc4ccccc43)ccc21 (stereo not given)
concentration [14]: 3.57 µM
IC50 [15]: 0.517 µM
concentration [16]: 7.88 µM

More lines, main results first:

inhibition [1]: 2%
SMILES: OCCNCc1cccc2ccccc12

IC50 [2]: 0.109 µM
SMILES: O=C(NC[C@H](O)CN1CCc2ccccc2C1)c1ccc(C(=O)N2CCOCC2)cc1

IC50 [3]: > 10 µM
SMILES: O=C(NC[C@H](O)CN1CCCCC1)c1cc(NC2COC2)ncn1

inhibition [4]: 7.8%
SMILES: CCn1c2ccccc2c2cc(CNCc3ccccn3)ccc21

IC50 [2]: 0.105 µM
SMILES: CC(=O)N1CCC(Oc2nccc(C(=O)NC[C@@H](O)CNC3Cc4ccccc4C3)c2Cl)CC1

bioavailability [5]: 69%
clearance [7]: 1.8 L/h/kg
Vd [8]: 1.7 L/kg
SMILES: O=C(NC[C@H](O)CN1CCc2ccccc2C1)c1cc(NC2COC2)ncn1
inhibition in vivo at 200 mg/kg (Maver1 [6]): > 93%
inhibition in vivo at 200 mg/kg (Z-138 [9]): > 93%
